According to patent US9345742B2, “Aminostatin derivatives for the treatment of arthrosis” (MERCK PATENT GMBH, priority 2011, dated 2016):
Numbered stars: 1 amine (or outer) side, 2 acyl side, 3 side chain; on linkers, the order of the positions; unused ones are H or OH. Square brackets hold non-standard residues; d marks the D form. Peptide text beside a SMILES is read from it. * marks the point of attachment. X1 = N[C@@H](CC(=O)[*:2])[C@H](Cc1ccccc1)N[*:1]; Isovaleryl = CC(C)CC(=O)*

Key:
[1] = Stability in bovine synovial fluid; assay type: in vitro ADME; details: 1 μM, 48 h at 37° C.
Experimental: In order to check the stability of individual compounds, a pool of four different bovine synovial fluids is mixed. To this end, about 1 ml per SF is used. The mixture is prepared directly in a 5 ml glass vessel. The SFs are mixed thoroughly, but carefully. No air bubbles or foam should form. To this end, a vortex unit is used at the lowest speed. The compounds to be tested are tested in an initial concentration (unless required otherwise) of 1 μM. After addition of the substance, the batch is again mixed thoroughly and carefully. For visual monitoring, all SF batches are photographed, and the pictures are filed in the eLabBio file for the corresponding experiment. […] The batches are incubated in the incubator for 48 h at 37° C. and 7.5% CO2.
The sampling is carried out after the pre-agreed times (unless required otherwise, see below). 200 μl of the SF are removed from the mixture per time and transferred directly into a 0.5 ml “low-binding” Eppendorf vessel. “Low-binding” Eppendorf vessels are used in order to minimise interaction of the substances with the plastic of the vessels. 200 μl of acetonitrile have already been introduced into the Eppendorf vessel, so that a 1+1 mixture of the SF forms thereafter. This simplifies the subsequent analysis, but precipitation of protein may occur immediately after addition of the SF. This should be noted on the protocol. The 0 h sample is taken immediately after addition of the substance. This corresponds to the 100% value in the stability calculation. Ideally, the concentration employed should be retrieved here. The samples can be frozen at −20° C. • 0 h • 6 h • 24 h • 48 h
The negative control used is SF without substance. The positive control used is SF with 1 μM of substance. This corresponds to the 0 h value and thus 100% stability.
The concentrations measured (ng/ml) are plotted against the time in a graph (GraphPad Prism®). The percentage stability of the substance is determined here. The 100% value used is the initial value in the SF at time 0 h. The data are stored in eLabBio under the respective experiment number and reported in the MSR database (as percent stability after the corresponding incubation times).

[2] = biological target: cathepsin D isolated from the human liver (Homo sapiens (Human), UniProt P07339); test: In-vitro fluorescence assay for identification of cathepsin D inhibitors; assay type: biochemical; details: cathepsin D 1.4 nM, pH 5.5; read-out: CatD assay IC50-
Procedure, shortened: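 A FRET-quenched MCA/Dnp peptide (5 μM final) was cleaved by 1.4 nM liver-derived human cathepsin D at pH 5.5 in sodium acetate buffer containing CHAPS and 1.25% DMSO. Enzyme and compound dilutions were first incubated 10 min.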

rat knee joint = test: Carrageenan (CAR)-induced knee joint inflammation: swelling and thermal hyperalgesia (Hargreaves test); assay type: in vivo; details: intra-articular administration 30 minutes before CAR
Experimental: In order to induce an inflammation reaction, a carrageenan solution (CAR, 1%, 50 μl) was injected intra-articularly on one side into a rat knee joint. The uninjected side was used for control purposes. Six animals per group were used. The […] was determined by means of a micrometer screw (medial-lateral on the knee joint), and the thermal hyperalgesia was determined by means of a directed infrared light source by the Hargreaves method (Hargreaves et al., 1988) on the sole of the foot. Since the site of inflammation (knee joint) is different from the site of measurement (paw sole), use is made here of the term secondary thermal hyperalgesia, the mechanism of which is of importance for the discovery of effective analgesics.
Experimental description of thermal hyperalgesia (Hargreaves test): the experimental animal is placed in a plastic chamber on a quartz sheet. Before testing, the experimental animal is firstly given about 5-15 minutes time to familiarise itself with the environment. As soon as the experimental animal no longer moves so frequently after the familiarisation phase (end of the exploration phase), the infrared light source, whose focus is in the plane of the glass bottom, is positioned directly beneath the rear paw to be stimulated. An experiment run is then started by pressing the button: infrared light results in an increase in the skin temperature of the rear paw. The experiment is terminated either by the experimental animal raising the rear paw (as an expression of the pain threshold being reached) or by automatic switching-off of the infrared light source when a prespecified maximum temperature has been reached. Light reflected by the paw is recorded as long as the experimental animal sits still. Withdrawal of the paw interrupts this reflection, after which the infrared light source is switched off and the time from switching on to switching off is recorded. The instrument is calibrated in such a way that the infrared light source increases the skin temperature to about 45 degrees Celsius in 10 s (Hargreaves et al. 1988). […]

recombinant human renin = recombinant human renin (Homo sapiens (Human), UniProt P00797); test: In-vitro fluorescence assay for identification of renin-inhibitory activity; assay type: biochemical; details: recombinant human renin 10 nM, pH 7.2; read-out: Renin selectivity IC50
Procedure, shortened: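 Recombinant human renin (10 nM) pre-incubated 15 min at RT with serially diluted compound in 50 mM Mops pH 7.2, 1.5% DMSO, 0.1% Igepal, 0.5% BSA; Edans/Dabcyl FRET peptide (5 µM final) added, 60 min at 37 °C; cleavage read as fluorescence increase (ex 340/em 495 nm) against no-compound wells.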

bovine explants = test: Cartilage explant assay (pH-induced cartilage degradation, GAG liberation); assay type: cell-based; details: Bos taurus, 72 h, pH 5.5, 3 days
Text: In order to investigate the effect of potential cathepsin D inhibitors on cartilage degradation, a pH-induced model based on bovine explants is used. The pH of the medium in which the explants are cultivated is matched here to the pathophysiological pH of an arthrotic knee. This pH is pH 5.5. In this ex vivo model, potential cathepsin D inhibitors are subsequently investigated for their action with respect to stopping of the cartilage degradation process. If the cartilage is destroyed, glycosaminoglycans (GAGs) are released into the cell culture supernatant. The amount of GAGs liberated can be determined quantitatively with the aid of DMMB (dimethylmethylene blue hydrochloride). If sulfated GAGs are detected using dimethylmethylene blue hydrochloride, the decrease in the absorption at 633 nm is utilised. […] In order to determine the concentration, a calibration line is also recorded using chondroitin sulfate.
The bovine explants are firstly prepared. The induction of the cartilage degradation is carried out in 96-multiwell plates. One explant is cultivated per well. In each case, 200 μl of DMEM (incubation medium pH 5.5) without FBS+30 μg/ml of ascorbic acid are added. Thus negative control, explants (n=4) are incubated at pH 7.4 (without FBS). This control is not included in the calculation of the data, but instead ensures that the pH change has the desired effect on the liberation of GAG. At this point, the substances to be tested are added. No preincubation of the explants is carried out. The explants are cultivated with the corresponding substances for 3 days in the incubator at 37° C. and 7.5% CO2.
In order to investigate the effect of cathepsin D inhibitors on the liberation of GAG (glycosaminoglycan), the substances are employed in the desired concentration and cultivated for 3 days. The compounds to be tested are tested in a first experiment in a concentration of 1 μM and 1% of DMSO. Substances which have an effect of >50% on the liberation of GAG (this corresponds to <50% of the control in the Assay Explorer) are tested in the next experiment at 100 nM and 1% of DMSO. Substances which have an effect of >50% on the liberation of GAG under these conditions (this corresponds to <50% of the control in the Assay Explorer) are tested in a concentration/effect relationship. The compounds here are investigated in the following concentrations: 30 μM, 10 μM, 3 μM, 1 μM, […], 0.1 μM, 0.03 μM, 0.01 μM.
The positive control used is pepstatin A with a concentration of 0.01 μM. The assay window is defined by the control (pH 5.5), defined as 0% effect, and the control pH 5.5+0.01 μM pepstatin A, defined as 100% effect. After incubation for 3 days, the cell culture supernatants are collected and stored at −20° C. or measured directly. The amount of liberated GAG is measured photometrically.
The effect (1 value) of the respective substance in % based on the positive control (pH 5.5+0.01 μM pepstatin A) and the negative control (pH 5.5) is reported for concentrations of 1 μM and 100 nM. The value represents the average of 4 replicants. In the determination of a concentration/effect relationship, an IC50 value is reported to the database (Assay Explorer).
The cell culture supernatants (200 μl) are either measured directly or stored at −20° C. In order to ensure an accurate determination of the concentration (μg/ml of GAG in the supernatant) of GAG, the measurement values must be located in the linear region of the standard curve. In order to ensure this, various dilutions are routinely introduced (1/5, 1/10, 1/20, 1/40). The dilutions are prepared with medium and introduced automatically (Hamilton) into a 384-well plate (15 μl). 60 μl of DMMB solution are likewise added automatically (or using a multichannel pipette). A rapid colour reaction occurs, which is subsequently measured at 633 nm using a plate reader (for example Envision).

Chain of cathepsin D isolated from the human liver (P07339 65-161): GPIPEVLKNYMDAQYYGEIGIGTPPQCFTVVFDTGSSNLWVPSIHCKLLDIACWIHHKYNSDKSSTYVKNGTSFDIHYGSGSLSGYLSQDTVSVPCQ
Chain of cathepsin D isolated from the human liver (P07339 169-412): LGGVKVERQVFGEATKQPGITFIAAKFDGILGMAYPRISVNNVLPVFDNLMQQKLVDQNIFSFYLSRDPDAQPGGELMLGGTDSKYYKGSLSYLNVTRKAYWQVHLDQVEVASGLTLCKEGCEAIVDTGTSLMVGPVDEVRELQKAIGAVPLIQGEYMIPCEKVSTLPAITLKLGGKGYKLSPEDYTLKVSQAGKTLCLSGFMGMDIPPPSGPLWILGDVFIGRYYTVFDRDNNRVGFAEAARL
Chain of recombinant human renin (P00797 67-406): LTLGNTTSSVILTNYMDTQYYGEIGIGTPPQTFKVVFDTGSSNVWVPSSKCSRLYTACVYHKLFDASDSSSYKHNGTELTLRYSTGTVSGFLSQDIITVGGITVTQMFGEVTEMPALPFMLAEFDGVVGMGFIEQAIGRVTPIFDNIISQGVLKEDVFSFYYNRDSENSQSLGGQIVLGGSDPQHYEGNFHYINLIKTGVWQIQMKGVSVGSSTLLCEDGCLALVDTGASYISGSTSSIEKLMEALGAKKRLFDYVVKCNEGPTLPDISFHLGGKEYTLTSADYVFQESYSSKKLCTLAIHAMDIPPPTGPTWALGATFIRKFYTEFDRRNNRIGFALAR

Structure (SMILES) | Stability in synovial fluid [1] | IC50 [2] [nM] | CAR-induced swelling of joint (rat knee joint) | also measured
C[C@]12C=CC(=O)C=C1CC[C@H]1[C@@H]3C[C@@H](O)[C@](O)(C(=O)CO)[C@@]3(C)C[C@H](O)[C@@]12F [TAC, Triamcinolone, reference compound] |  |  | capable of reducing the CAR-induced swelling | 
CC[C@H](C)[C@H](NC(=O)C[C@H](N)[C@H](Cc1ccccc1)NC(=O)[C@@H](NC(=O)[C@H](CC(C)C)NC(=O)CC(C)C)C(C)C)C(=O)NCCc1ccccc1 [Compound 24, N-((1S,2S)-2-Methyl-1-phenethyl-carbamoylbutyl)-(S)-3-amino-4-{(S)-(S)-3-methyl-2-[(S)-4-methyl-2-(3-methylbutyryl-amino)pentanoylamino]butyrylamino}-5-phenylpentanamide] | stable |  |  | IC50 (recombinant human renin): > 30000 nM
CC[C@H](C)[C@H](NC(=O)C[C@H](N)[C@H](Cc1ccccc1)NC(=O)[C@@H](NC(=O)[C@H](CC(C)C)NC(=O)CC(C)C)C(C)C)C(=O)N[C@H](C(=O)O)C(C)C [Compound 23, (S)-2-[(2S,3S)-2-((3S,4S)-3-Amino-4-{(S)-3-methyl-2-[(S)-4-methyl-2-(3-methylbutyrylamino)pentanoylamino]-butyrylamino}-5-phenylpentanoylamino)-3-methyl-pentanoylamino]-3-methylbutyric acid] (Isovaleryl-LV[X1]IV-OH) |  | 50 | no influence on inflammatory swelling | thermal hyperalgesia (rat knee joint; Hargreaves test): exerts an anti-hyperalgesic action

More lines, main results first:

Stability in synovial fluid [1] | IC50 [2] [nM] | Structure (SMILES) | CAR-induced swelling of joint (rat knee joint) | also measured
stable | 46 | CC[C@H](C)[C@H](NC(=O)C[C@H](N)[C@H](Cc1ccccc1)NC(=O)[C@@H](NC(=O)[C@H](CC(C)C)NC(=O)CC(C)C)C(C)C)C(=O)Nc1ccn(C)n1 [Compound 27, N-[(1S,2S)-2-Methyl-1-(1-methyl-1H-pyrazol-3-ylcarbamoyl)butyl]-(S)-3-amino-4-{(S)-(S)-3-methyl-2-[(S)-4-methyl-2-(3-methylbutyrylamino)pentanoylamino]-butyrylamino}-5-phenylpentanamide] |  | 
stable |  | CC[C@H](C)[C@H](NC(=O)C[C@H](N)[C@H](Cc1ccccc1)NC(=O)[C@@H](NC(=O)[C@H](Cc1ccccc1)NC(=O)CC(C)C)C(C)C)C(=O)N[C@H](C(=O)O)C(C)C [Compound 33, (S)-2-[(2S,3S)-2-((3S,4S)-3-Amino-4-{(S)-3-methyl-2-[(S)-2-(3-methylbutyrylamino)-3-phenylpropionylamino]-1-oxobutyl-amino}-5-phenylpentanoylamino)-3-methylpentanoylamino]-3-methyl-butyric acid] (Isovaleryl-FV[X1]IV-OH) |  | IC50 (bovine explants): 2.64 nM
